From patent US20240058318A1, “DEGRADING PKCB1 TO TREAT CANCER” (Mayo Foundation for Medical Education and Research, priority 2020, published 2024) come the findings set out here.

For data set [1], the system named is PKCβ1, E2F1, and Cyclin D1. Description: Western blot, BT549 and MDAMB436 cells (Example 6). It is filed as cell-based. To be noted: 1 μM, 24, 48, 72 hours. The protocol:
TNBC BT549 and MDAMB436 cells were cultured in phenol-red free DMEM/F12 medium supplemented with 10% fetal bovine serum (FBS) and 1% AA. On day 1, cells were plated at a density of 2×10^5 BT549 cells or 4×10^5 MDAMB436 cells in a 6-well plate (two wells per treatment). The next day, cells were treated with DMSO, 1 μM Pr-9 (positive control), 1 μM Pr-9-1, 1 μM Pr-9-4, or 1 μM ENDX (negative control). Radioimmunoprecipitation Assay (RIPA) protein lysates were collected 24, 48, and 72 hours after treatment.
For western blot analysis, […] of protein lysates were run on Criterion precast 10% Bis-Tris gel, transferred to PVDF membrane, incubated in TBST-5% milk for one hour, and then incubated overnight with PKCβ1 (SC8049, mouse, 1:200), E2F1 (SC251, mouse, 1:250), Cyclin D1 (CS2978, rabbit, 1:1000), or Actin (Sigma A2228, mouse, 1:10,000 or CS8457, rabbit, 1:2000) primary antibodies in TBST-5% BSA solution. Membranes were washed in TBS-T, incubated for one-hour in HRP-linked anti-rabbit or anti-mouse secondary antibodies in TBST-5% milk, and washed in TBS-T. Bands were developed using west-pico or west-femto chemiluminescent substrate reagents.
A general note: A western blot detects proteins with antibodies after separation by electrophoresis.

Data set [2] relates to Rb-proficient (MDAMB231) and Rb-deficient (BT549 and MDAMB436) TNBC cells. Description: CV proliferation assay, TNBC cells (statements across lines). It is filed as cell-based. To be noted: for inhibition of growth of TNBC cells: MDAMB231, BT549, MDAMB436, CV assay; for induction of apoptosis: MDAMB231 and BT549 cells (FIG. 4A and TABLE 1). As to the method:
(§1) Cell proliferation rates were determined using crystal violet assays. One thousand cells per well were plated in 96 well tissue culture plates and treated the following day with a bifunctional compound or control for 7 days in replicates of 8. Cells were fixed with 25% glutaraldehyde for 10 minutes with shaking, washed 5 times with distilled water, stained with a 1% crystal violet solution (solubilized in 25% methanol) for 10 minutes, washed again 5 times and allowed to dry. De-staining was performed using […] sodium citrate in 50% ethanol followed by quantification using a 96 well spectrophotometer set at an absorbance of 550 nm.
as §1, with “using CV” for “using crystal violet”, “assays. Two” for “assays. One”, “thousand (2000) or 4000” for “thousand”, “for 6” for “for 7”, “of 6.” for “of 8.”

Another data set relates to MCF7AC1 cells. Description: CV proliferation assay, ER+ MCF7AC1. It is filed as cell-based. The protocol:
as §1
as §1, with “using CV” for “using crystal violet”, “assays. Two” for “assays. One”, “thousand (2000) or 4000” for “thousand”, “for 6” for “for 7”, “of 6.” for “of 8.”

The subject of the next data set is BT549 cells. Description: Crystal violet (CV) proliferation assay, BT549. It is filed as cell-based. To be noted: BT549 (PKCß1 high, Rb negative), 2000 cells. As to the method:
(§2) Cell proliferation rates were determined using crystal violet assays. […] Cells were fixed with 25% glutaraldehyde for 10 minutes with shaking, washed 5 times with distilled water, stained with a 1% crystal violet solution (solubilized in 25% methanol) for 10 minutes, washed again 5 times and allowed to dry. De-staining was performed using […] sodium citrate in 50% ethanol followed by quantification using a 96 well spectrophotometer set at an absorbance of 550 nm.

A further data set deals with MDAMB436 cells. Description: Crystal violet (CV) proliferation assay, MDAMB436. It is filed as cell-based. To be noted: MDAMB436 (PKCß1 low, Rb negative), 2000 cells. As to the method: as §2
Another data set concerns MDAMB231 cells. Description: Crystal violet (CV) proliferation assay, MDAMB231. It is filed as cell-based. To be noted: MDAMB231 (PKCß1 high, Rb positive), 2000 cells. The protocol: as §2
A further data set deals with MDAH-2774 cells. Description: CV proliferation assay, MDAH-2774 ovarian cancer cells. It is filed as cell-based. To be noted: MDAH-2774 (PKCß1 high), 1000 cells/well. The protocol:
as §1
(§3) Based on the potent anti-proliferative activity of ENDX-PROTACs TC-Pr-006, TC-Pr-007, TC-Pr -008, and TC-Pr -009 in TNBC cells, the efficacy of these compounds for inhibiting the growth of ovarian cancer cells was tested. This analysis utilized KURAMOCHI cells, which represent the high-grade serous subtype (the most malignant form that accounts for 70% of all ovarian cancers and associates with poor clinical outcome) and MDAH-2774 cells, which represent endometrioid ovarian cancer and accounts for 20% of all ovarian cancer. PKCβ1 was confirmed to be expressed in both ovarian cancer cell line models, with MDAH-2774 cells expressing higher amounts of PKCβ1 compared to KURAMOCHI cells (FIG. 5A).

A further data set deals with KURAMOCHI cells. Description: CV proliferation assay, KURAMOCHI ovarian cancer cells. It is filed as cell-based. To be noted: KURAMOSHI (PKCß1 low), 1000 cells/well. The protocol:
as §1, §3

A further data set has as its target T1, PKCβ1 (Homo sapiens, UniProt P05771).
T1 construct: western blots showing expression of PKCβ1 in MCF7AC1 cells treated with 1 μM concentration of the ENDX-PROTACs or ENDX; endogenous in cells; host or cells: MCF7AC1 (ER+ breast cancer cells)
As to the kind of experiment: Western blot, PKCβ1 expression in MCF7AC1 cells. It is filed as cell-based. To be noted: 1 μM, within 72 hours, drugs replenished every 24 hours. The protocol: For western blotting analysis, cells were treated with vehicle (DMSO) or 1 μM of the indicated ENDX-PROTAC's or parent drug ENDX for 24, 48 and 72 hours with the drugs replenished every 24 hours. 25 μg of protein lysates were run on 10% Bis-Tris XT Criterion precast SDS-PAGE gels and transferred on to PVDF membrane. Following blocking with TB ST-5% milk, the membranes were probed with primary antibodies (1:500 — 1:2000 dilutions) for PKCβ1 (Abcam #136917), ERα (SC #8002), E2F1 (SC #251) and Actin (CS#8457) in TBST-5% BSA and secondary antibodies (1:2000 dilution) in TBST-5% milk. Membranes were developed using chemiluminescent WestPico or WestFemto detection solutions on the Li-Cor Imaging system.

Data set [3] can be described thus: Pharmacokinetics in mice, plasma by UPLC-MS/MS. To be noted: for Concentration ENDX PROTAC 9: PO 10 mg/kg, mouse plasma, individual samples. It is filed as in vivo, female CD1 mice. The protocol: ENDX PROTAC 7 and PROTAC 9 pharmacokinetics were characterized in female CD1 mice. Blood samples were collected from mice anesthetized under isoflurane via retro-orbital eye bleed into tubes containing EDTA and immediately chilled on ice. NaF was added to the EDTA collection tubes to help stabilize the drug in whole blood for the second IV and IP studies with ENDX PROTAC 9, and for the IV and oral studies with PROTAC 7. Plasma and red blood cells were separated immediately by centrifugation in a refrigerated centrifuge at 4° C. The plasma was transferred to a separate tube and immediately frozen at −20° C.
For IV dosing, ENDX PROTAC 9 was dissolved in 10% DMSO, 10% PEG 400, and 80% normal saline for a final concentration of 0.2 mg/mL ENDX PROTAC 9 for the 1 mg/kg IV doses. ENDX PROAC 7 was dissolved in 15% DMSO, 9.44% PEG400, and […] normal saline for a final concentration of 0.19 mg/mL for the 1 mg/kg IV doses. Blood samples (3 mice per time-point) were collected 5 minutes, 15 minutes, 0.5 hour, 1 hour, 2 hours, 4 hours, 8 hours, and 24 hours after administration of the ENDX PROTAC. A second IV study was performed for ENDX PROTAC 9 in which blood samples (3 mice per time-point) were collected 5 minutes, 15 minutes, 1 hour, and 2 hours after administration of ENDX PROTAC 9. For oral dosing, ENDX PROTAC 9 (10 mg/kg) and ENDX PROTAC 7 (10 mg/kg) were suspended in 1 mM ascorbic acid:PEG400, 1:1 v/v for a final concentration of 1.0 mg/mL ENDX PROTAC. Blood samples (three mice per time-point) were collected 15 minutes, 0.5 hour, 1 hour, 2 hours, 4 hours, 6 hours, 8 hours, and 24 hours after administering the ENDX PROTAC. For LP. dosing, ENDX PROTAC 9 (4 mg/kg) was prepared in 1 mM ascorbic acid:PEG400, 1:1 v/v for a final concentration of 0.4 mg/mL ENDX PROTAC 9. Blood samples (three mice per time-point) were collected 15 minutes, 0.5 hour, 1 hour, 2 hours, 4 hours, 6 hours, 8 hours, and 24 hours after administration. Plasma concentrations of ENDX PROTAC 7 and 9 were measured using UPLC-MS/MS.

The structures appear in SMILES notation. “Also recorded” adds a separate entry of the source.

T1 sequence (P05771 whole entry): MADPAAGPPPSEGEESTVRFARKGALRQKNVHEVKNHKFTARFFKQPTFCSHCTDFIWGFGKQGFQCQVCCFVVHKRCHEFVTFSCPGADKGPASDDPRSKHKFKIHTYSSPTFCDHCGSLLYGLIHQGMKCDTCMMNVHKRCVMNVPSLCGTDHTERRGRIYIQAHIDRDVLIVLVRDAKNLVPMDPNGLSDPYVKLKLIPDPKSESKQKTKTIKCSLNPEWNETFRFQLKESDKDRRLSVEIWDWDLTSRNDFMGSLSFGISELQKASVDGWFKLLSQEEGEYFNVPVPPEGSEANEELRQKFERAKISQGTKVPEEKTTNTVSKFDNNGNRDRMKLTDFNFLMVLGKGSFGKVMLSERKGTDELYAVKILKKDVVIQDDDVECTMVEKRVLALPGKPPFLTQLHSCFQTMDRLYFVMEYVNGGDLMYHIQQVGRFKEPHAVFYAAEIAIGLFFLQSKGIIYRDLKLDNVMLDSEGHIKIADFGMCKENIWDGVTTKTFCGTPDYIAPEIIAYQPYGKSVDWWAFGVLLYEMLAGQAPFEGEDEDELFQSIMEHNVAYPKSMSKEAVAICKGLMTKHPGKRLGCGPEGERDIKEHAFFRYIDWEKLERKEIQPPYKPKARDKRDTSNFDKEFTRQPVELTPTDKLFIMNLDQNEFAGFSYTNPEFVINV

Consider `CC/C(=C(\c1ccc(O)cc1)c1ccc(OCCN(C)C(=O)COCCOCCN(C)C(=O)Cc2ccc3c(c2)CN(C2CCC(=O)NC2=O)C3=O)cc1)c1ccccc1` (centres unmarked) [Pr-9-1], for which, in [1], the “impact on PKCβ1, E2F1, and Cyclin D1 protein expression” value is listed as “lack of impact”. Further, in data set [2], the “inhibition of growth of TNBC cells” value is recorded as “did not inhibit growth of MDAMB231, BT549, or MDAMB436 TNBC cells as effectively”. For the same compound, the “inhibition of growth of ER+ MCF7AC1 cells” value in the data set on MCF7AC1 cells is on record as “inhibited growth of ER+ MCF7AC1 cells”.
For the compound `CC/C(=C(\c1ccc(O)cc1)c1ccc(OCCN(C)C(=O)COCCO[C@@H]2CCN(C(=O)Cc3ccc4c(c3)CN(C3CCC(=O)NC3=O)C4=O)C2)cc1)c1ccccc1` (some centres unmarked) [Pr-9-4], in data set [1], the “impact on PKCβ1, E2F1, and Cyclin D1 protein expression” value is “lack of impact”. The “inhibition of growth of TNBC cells” value in data set [2] is “did not inhibit growth of MDAMB231, BT549, or MDAMB436 TNBC cells as effectively”. Besides, the “inhibition of growth of ER+ MCF7AC1 cells” value in the data set on MCF7AC1 cells is on record as “inhibited growth of ER+ MCF7AC1 cells”.
Consider `CC/C(=C(\c1ccc(O)cc1)c1ccc(OCCN(C)C(=O)COCCNC(=O)c2cccc3c2CN([C@H]2CCC(=O)NC2=O)C3=O)cc1)c1ccccc1` [TC-Pr-001], for which the “IC50 (result in words)” value in the data set with BT549 cells and with MDAMB231 cells was “No major killing” each time. Further, in the data set on MDAMB436 cells, the IC50 was 10000 nM.
Regarding `CC/C(=C(\c1ccc(O)cc1)c1ccc(OCCN(C)C(=O)CCOCCNC(=O)c2cccc3c2CN([C@H]2CCC(=O)NC2=O)C3=O)cc1)c1ccccc1` [TC-Pr-002], the “IC50 (result in words)” value in the data set on BT549 cells, with MDAMB436 cells and in the data set on MDAMB231 cells was “No major killing” each time.
Regarding `CC/C(=C(\c1ccc(O)cc1)c1ccc(OCCN(C)C(=O)COCCOCCNC(=O)c2cccc3c2CN([C@H]2CCC(=O)NC2=O)C3=O)cc1)c1ccccc1` [TC-Pr-003], the “IC50 (result in words)” value in the data set with BT549 cells, in the data set with MDAMB436 cells and in the data set with MDAMB231 cells was “No major killing” each time. The “Approximate IC50 (result in words)” value in the data set on MDAH-2774 cells and with KURAMOCHI cells was “No killing” each time.
`CC/C(=C(\c1ccc(O)cc1)c1ccc(OCCN(C)C(=O)COCCNC(=O)c2ccc3c(c2)CN([C@H]2CCC(=O)NC2=O)C3=O)cc1)c1ccccc1` [TC-Pr-004]: the results for the “IC50 (result in words)” value in the data set with BT549 cells and with MDAMB231 cells were “No major killing,” and “No major killing”, respectively. In the data set on MDAMB436 cells, this compound yielded an IC50 of 10000 nM.
As for `CC/C(=C(\c1ccc(O)cc1)c1ccc(OCCN(C)C(=O)CCOCCNC(=O)c2ccc3c(c2)CN([C@H]2CCC(=O)NC2=O)C3=O)cc1)c1ccccc1` [TC-Pr-005], the IC50 in the data set on BT549 cells is more than 10000 nM; in the data set on MDAMB436 cells, 100 to 1000 nM; with MDAMB231 cells, more than 10000 nM.
In the case of `CC/C(=C(\c1ccc(O)cc1)c1ccc(OCCN(C)C(=O)CCOCCNC(=O)Cc2ccc3c(c2)CN([C@H]2CCC(=O)NC2=O)C3=O)cc1)c1ccccc1` [TC-Pr-008], the IC50 in the data set on BT549 cells was 225 nM; in the data set with MDAMB436 cells, 74 nM; in the data set on MDAMB231 cells it was 131 nM. For the same compound, the induction of apoptosis result in data set [2] was “induced apoptosis”. The PKCβ1 polypeptide degradation result at PKCβ1 is given as “rapidly degraded PKCβ1 polypeptides”.
Turning to `CCC(=C(c1ccc(O)cc1)c1ccc(OCCN(C)C(=O)COCCOCCNC(=O)Cc2ccc3c(c2)CN(C2CCC(=O)NC2=O)C3=O)cc1)c1ccccc1` (centres unmarked) [TC-Pr-009, 2-[2-(2-2-[2-(2,6-dioxopiperidin-3-yl)-1-oxo-2,3-dihydro-1H-isoindo1-5-yl]acetamidoethoxy)ethoxy]-N-(2-4-[1-(4-hydroxyphenyl)-2-phenylbut-1-en-1-yl]phenoxyethyl)-N-methylacetamide], in data set [1], the PKCβ1 protein levels entry is listed as “altered to varying extent”. The “protein levels of E2F1 and Cyclin D1” value in [1] (listed as Pr-9) is reported as “clearly reduced by 48 hours; also recorded: reduced protein levels”. Further, the induction of apoptosis entry in data set [2] is on record as “induced apoptosis”. Also, the “Concentration ENDX PROTAC 9” value in [3] (120 minutes, listed as ENDX PROTAC 9, 10 mg/kg) is on record as “BLD*”; in data set [3] (360 minutes, listed as ENDX PROTAC 9, 10 mg/kg) it was “BLD”; in data set [3] (480 minutes, listed as ENDX PROTAC 9, 10 mg/kg), “BLD”; in data set [3] (1440 minutes), “BLD”. Also, in [3] (mice, I.V. 1 mg/kg, second study, NaF added to EDTA tubes), the “time of peak plasma concentration” value was found to be 5 min. The “stability in whole blood” value in data set [3] (mouse whole blood, comparison of IV studies with and without NaF) is “unstable in whole blood”. Besides, the PKCβ1 polypeptide degradation result at PKCβ1 was “rapidly degraded PKCβ1 polypeptides”.

Broadly, the IC50 is the concentration at which inhibition is half-maximal. A low value points to higher potency.
